Reference: patent publication US7452997B2 (priority 2004, dated 2008)

Tests used:
human CB2 receptor = human CB2 receptor (Homo sapiens, UniProt P34972); test: Binding assay, cannabinoid CB2 receptor ([3H]-CP-55,940 displacement); settings: Cannabinoid CB2 Receptor Binding IC50, human CB2 receptor, SK-N-MC cell membranes, radioligand CP-55,940 0.2 nM
Method: (§1) Binding Assay for CB1 or CB2 Agonists or Inverse Agonists
(§2) The human CB1 and CB2 receptors were stably expressed in SK-N-MC cells transfected with pcDNA3 CB-1 (human) or pcDNA3 CB-2 (human). The cells were grown in T-180 cell culture flasks under standard cell culture conditions at 37° C. in a 5% CO2 atmosphere. The cells were harvested by trysinization and homogenized in a homogenization buffer (10 mM Tris, 0.2 mM MgCl2, 5 mM KCl, with protease inhibitors aprotinin, leupeptin, pepstatin A and bacitracin) and centrifuged (2000 g). The supernatant was then centrifuged in 2M sucrose (31,300 g) to produce a semi-purified membrane pellet. The pellet was resuspended in homogenization and store at −80° C.
(§3) On the day of the assay, the pellet was thawed on ice and diluted in assay buffer (50 mM Tris-HCl, 5 mM MgCl2, 2.5 mM EDTA, 0.5 mg/mL fatty acid free bovine serum albumin, pH 7.5). The diluted membrane was added with buffer, test compound or standard and the radioligand [H]^3+-CP-55,940_(0.2 nM) to the wells of a 96-well polypropylene plate. Non-specific binding was measured in wells containing 10 uM WIN 55,212. The plate was covered and incubated for 90 minutes at 30° C. The contents were then aspirated onto a Packard UNIFILTER GF/C filter bottom plate prewet with 0.5% polyethyleneimine. The wells of the polypropylene plate were rinsed and aspirated seven times with a 0.9% saline-0.5% TWEEN 20 solution. The UNIFILTER plate was dried, a scintillation cocktail was added to each well and the counts representing binding were quantitated in a TOPCOUNT scintillation counter.
(§4) The IC50 binding values for compounds tested were calculated by linear regression and were obtained from studies in which varying compound concentrations were used.

human CB1 receptor = molecular target: T1, human CB1 receptor (Homo sapiens, UniProt P21554); test: biochemical; assay type: binding
T1 construct: expressed in transfected cells; host or cells: SK-N-MC cells, stably transfected with pcDNA3 CB-1 (human); semi-purified membrane pellet
Method: as §1, §2
as §3, with “The diluted membrane was added with buffer, test compound or standard and the radioligand [H]^3+-CP-55,940_(0.2 nM) to the wells of a 96-well polypropylene plate. Non-specific binding was measured in wells containing 10 uM WIN 55,212.” left out, “UNIFILTER” left out
as §4

Chain of human CB2 receptor (P34972 whole entry): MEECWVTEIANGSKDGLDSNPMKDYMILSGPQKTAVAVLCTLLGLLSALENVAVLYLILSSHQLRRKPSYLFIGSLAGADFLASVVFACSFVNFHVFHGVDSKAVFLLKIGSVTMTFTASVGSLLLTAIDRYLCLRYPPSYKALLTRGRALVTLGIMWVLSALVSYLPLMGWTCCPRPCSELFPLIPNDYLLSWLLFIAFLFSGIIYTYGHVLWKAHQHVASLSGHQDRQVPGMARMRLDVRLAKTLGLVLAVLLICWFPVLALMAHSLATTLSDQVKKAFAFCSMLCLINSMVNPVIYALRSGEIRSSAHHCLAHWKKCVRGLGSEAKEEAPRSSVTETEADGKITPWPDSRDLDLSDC
T1 sequence (P21554 whole entry): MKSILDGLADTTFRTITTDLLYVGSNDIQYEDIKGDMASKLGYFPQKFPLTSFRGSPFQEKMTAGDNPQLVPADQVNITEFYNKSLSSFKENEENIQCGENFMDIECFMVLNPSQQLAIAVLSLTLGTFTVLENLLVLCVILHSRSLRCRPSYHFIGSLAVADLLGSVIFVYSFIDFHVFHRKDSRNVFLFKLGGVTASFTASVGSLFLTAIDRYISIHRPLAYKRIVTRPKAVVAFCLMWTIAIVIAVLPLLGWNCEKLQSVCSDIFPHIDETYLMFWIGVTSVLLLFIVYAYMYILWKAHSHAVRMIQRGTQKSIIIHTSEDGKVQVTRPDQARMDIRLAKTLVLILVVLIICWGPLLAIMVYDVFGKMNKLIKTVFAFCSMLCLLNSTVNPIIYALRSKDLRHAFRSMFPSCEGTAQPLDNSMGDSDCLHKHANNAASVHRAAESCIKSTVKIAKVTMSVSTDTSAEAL

SMILES | IC50 (human CB2 receptor) [nM] | IC50 (human CB1 receptor) [nM]
CC(NC(=O)c1nn(C2CCCCC2)c2c1CC(CO)CC2)C12CC3CC(CC(C3)C1)C2 (centres unmarked) [Cpd 143, 1-cyclohexyl-5-hydroxymethyl-4,5,6,7-tetrahydro-1H-indazole-3-carboxylic acid (1-adamantan-1-yl-ethyl)-amide] | 1260 | 2400
CCOC(=O)[C@H]1C2CCC(C2)[C@H]1NC(=O)c1nn(C2CCCCC2)c2c1CCCC2O (stereo partly drawn) [Cpd 164, (2S,3R)-3-[(1-cyclohexyl-7-hydroxy-4,5,6,7-tetrahydro-1H-indazole-3-carbonyl)-amino]-bicyclo[2.2.1]heptane-2-carboxylic acid ethyl ester] | 490 | 6010
CC12CCC(C1)C(C)(C)C2NC(=O)c1nn(Cc2ccccc2)c2c1CCCC2 (centres unmarked) [Cpd 194, 1-benzyl-4,5,6,7-tetrahydro-1H-indazole-3-carboxylic acid (1,3,3-trimethyl-bicyclo[2.2.1]hept-2-yl)-amide] | 0.2 | 0.1
O=C(NC1C2CC3CC(C2)CC1C3)c1nn(C2CCCCC2)c2c1CC(C(=O)O)CC2 (centres unmarked) [Cpd 223, 3-(adamantan-2-ylcarbamoyl)-1-cyclohexyl-4,5,6,7-tetrahydro-1H-indazole-5-carboxylic acid] | 2900 | 170000
COc1ccc(C(O)CNC(=O)c2nn(C3CCCCC3)c3c2CCCC3)cc1 (centres unmarked) [Cpd 241, 1-cyclohexyl-4,5,6,7-tetrahydro-1H-indazole-3-carboxylic acid [2-hydroxy-2-(4-methoxy-phenyl)-ethyl]-amide] | 500 | 3400
O=C(NCC1CCCCC1)c1nn(C2CCCCC2)c2c1CCCC2 [Cpd 304, 1-cyclohexyl-4,5,6,7-tetrahydro-1H-indazole-3-carboxylic acid cyclohexylmethylamide] | 20 | 160
C[C@H](C1CCCCC1)N(C)C(=O)c1nn(C2CCCCC2)c2c1CCCC2 [Cpd 328, 1-cyclohexyl-4,5,6,7-tetrahydro-1H-indazole-3-carboxylic acid [(1R)-1-cyclohexyl-ethyl]-methylamide] | 1600 | 5100
O=C(NC(c1ccccc1)C1CCCCC1)c1nn(C2CCCCC2)c2c1CCCC2 (centres unmarked) [Cpd 331, 1-cyclohexyl-4,5,6,7-tetrahydro-1H-indazole-3-carboxylic acid (cyclohexyl-phenyl)methylamide] | 98 | 3000
CCOC(=O)C(Cc1nn(C2CCCCC2)c2c1CCCC2)c1ccccc1OC (centres unmarked) [Cpd 332, 3-(1-cyclohexyl-4,5,6,7-tetrahydro-1H-indazol-3-yl)-2-(2-methoxy-phenyl)-propionic acid ethyl ester] | 1900 | 3900
COc1ccccc1C(Cc1nn(C2CCCCC2)c2c1CCCC2)C(=O)NC1C2(C)CCC(C2)C1(C)C (centres unmarked) [Cpd 333, 3-(1-cyclohexyl-4,5,6,7-tetrahydro-1H-indazol-3-yl)-2-(2-methoxy-phenyl)-N-(1,3,3-trimethyl-bicyclo[2.2.1]hept-2-yl)-propionamide] | 2900 | 5700
COC(=O)C(Cc1ccc(O)cc1)NC(=O)c1nn(-c2ccc(OC)cc2)c2c1CCCC2 (centres unmarked) [compound 5] | 291 | 6800
COC(=O)C(Cc1ccc(O)cc1)NC(=O)c1c2c(nn1-c1ccc(OC)cc1)CCCC2 (centres unmarked) [compound 6] | 367 | 6750
Cc1ccc(-n2nc(C(=O)NC3C4(C)CCC(C4)C3(C)C)c3c2CCCC3)cc1 (centres unmarked) [compound 11] | 40.6 | 285
CC12CCC(C1)C(C)(C)C2NC(=O)c1nn(-c2ccc(Cl)cc2)c2c1CCCC2 (centres unmarked) [compound 12] | 21.4 | 148
O=C(NC1CCCCCCC1)c1nn(-c2ccc(F)cc2)c2c1CCCC2 [compound 15] | 53.8 | 241
CC12CCC(C1)C(C)(C)C2NC(=O)c1nn(-c2ccccc2F)c2c1CCCC2 (centres unmarked) [compound 16] | 5.4 | 185
O=C(NC1CC2CCC1C2)c1nn(-c2ccc(F)cc2)c2c1CCCC2 (centres unmarked) [compound 20] | 35.2 | 169
CC1(C)C2CCC1(C)C(NC(=O)c1nn(-c3ccc(F)cc3)c3c1CCCC3)C2 (centres unmarked) [compound 21] | 11 | 44
CC(NC(=O)c1nn(-c2ccc(F)cc2)c2c1CCCC2)C1C2CC3CC(C2)CC1C3 (centres unmarked) [compound 22] | 143 | 1030
CCOC(=O)C1C2CCC(C2)C1NC(=O)c1nn(-c2ccc(F)cc2)c2c1CCCC2 (centres unmarked) [compound 23] | 100 | 1800
CC12CCC(C1)C(C)(C)C2NC(=O)c1nn(-c2ccc(F)cc2)c2c1CCCC2C1CCCCC1 (centres unmarked) [compound 24] | 6820 | 3810
CC1(C)C2CCC1(C)C(NC(=O)c1nn(C3CCCCC3)c3c1CCCC3)C2 (centres unmarked) [compound 25] | 1.6 | 75.3
O=C(NNC1CCCCC1)c1nn(Cc2ccccc2)c2c1CCCC2 [compound 29] | 115 | 790

SMILES | IC50 (human CB2 receptor) [nM] | IC50 (human CB1 receptor) [nM]
O=C(NNC1CCCCC1)c1nn(-c2ccc(F)cc2)c2c1CCCC2 [compound 30] | 1470 | 7890
O=C(NNC1CCCCC1)c1nn(C2CCCCC2)c2c1CCCC2 [compound 31] | 195 | 1690
CCOC(=O)[C@@H]1CCCC[C@H]1NC(=O)c1nn(-c2ccc(F)cc2)c2c1CCCC2 [compound 34] | 40.9 | 136
CC(NC(=O)c1nn(Cc2ccccc2)c2c1CCCC2)C12CC3CC(CC(C3)C1)C2 (centres unmarked) [compound 39] | 6 | 9
O=C(NN1CCCCCC1)c1nn(Cc2ccccc2)c2c1CCCC2 [compound 41] | 34.8 | 49
CCOC(=O)C1C2CCC(C2)C1NC(=O)c1c2c(nn1Cc1ccccc1)CCCC2 (centres unmarked) [compound 42] | 640 | 10700
O=C(NC1C2CC3CC(C2)CC1C3)c1nn(C2CCCCC2)c2c1CCCC2 (centres unmarked) [compound 45] | 5.6 | 40
O=C(N[C@@H]1CCCC[C@@H]1CO)c1nn(C2CCCCC2)c2c1CCCC2 [compound 48] | 55.3 | 249
O=C(N[C@@H]1CCCC[C@H]1CO)c1nn(C2CCCCC2)c2c1CCCC2 [compound 49] | 72.8 | 150
O=C(CCc1nn(C2CCCCC2)c2c1CCCC2)N[C@@H]1CCCC[C@H]1CO [compound 51] | 8420 | 15200
O=C(CCc1nn(C2CCCCC2)c2c1CCCC2)N[C@@H]1C2CCC(C2)[C@@H]1CO (some centres unmarked) [compound 52] | 4900 | 6260
CC(NC(=O)CCc1nn(C2CCCCC2)c2c1CCCC2)C12CC3CC(CC(C3)C1)C2 (centres unmarked) [compound 53] | 230 | 6120
CCOC(=O)[C@H]1C2CCC(C2)[C@H]1NC(=O)CCc1nn(C2CCCCC2)c2c1CCCC2 (some centres unmarked) [compound 54] | 6050 | 11400
CCOC(=O)C1=C(NC(=O)c2nn(C3CCCCC3)c3c2CCCC3)CCC1 [compound 57] | 2200 | 10900
CCOC(=O)[C@H]1CCC[C@H]1NC(=O)c1nn(C2CCCCC2)c2c1CCCC2 [compound 58] | 170 | 736
CCOC(=O)[C@H]1CCCC[C@@H]1NC(=O)c1nn(C2CCCCC2)c2c1CCCC2 [compound 59] | 70 | 340
CCOC(=O)[C@@H]1CCC[C@@H]1NC(=O)c1nn(C2CCCCC2)c2c1CCCC2Cl (some centres unmarked) [compound 61] | 190 | 2190
CCOC(=O)[C@H]1C2CCC(C2)[C@H]1NC(=O)c1nn(C2CCCCC2)c2c1CCCC2Cl (some centres unmarked) [compound 63] | 3300 | 13700
CC(NC(=O)c1nn(C2CCCCC2)c2c1CCCC2Cl)C12CC3CC(CC(C3)C1)C2 (centres unmarked) [compound 64] | 30 | 410
CCOC(=O)C1CCc2c(C(=O)NC3C4CC5CC(C4)CC3C5)nn(C3CCCCC3)c2C1 (centres unmarked) [compound 68] | 57 | 463
CCOC(=O)C1CCc2c(C(=O)NC(C)C34CC5CC(CC(C5)C3)C4)nn(C3CCCCC3)c2C1 (centres unmarked) [compound 69] | 2.7 | 220
CCOC(=O)C1CCCc2c1c(C(=O)NC1C3CC4CC(C3)CC1C4)nn2C1CCCCC1 (centres unmarked) [compound 71] | 500 | 530
CCOC(=O)C1CCCc2c1c(C(=O)NC(C)C13CC4CC(CC(C4)C1)C3)nn2C1CCCCC1 (centres unmarked) [compound 72] | 4100 | 8400
